Several values for one entry are separate records, joined by “and”; a condition that tells them apart may be missing. Identical values can stand only once. Inconclusive results and toxic doses are left out.
Tested on: L1210 leukemia ip in BDF1 mice, survival T/C
Assay: NCI In Vivo Anticancer Drug Screen. Data for tumor model L1210 Leukemia (intraperitoneal) in B6D2F1 (BDF1) mice
Conditions: endpoint: mean survival time, higher = longer survival
Method in brief: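 Mice bearing the transplanted tumor received compound or vehicle. Survival of the treated group was divided by that of the vehicle-treated control group to give the ratio.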

[1] = dose: 100.0 mg/kg/injection, schedule: Q01DX001 (ip), vehicle: carboxymethylcellulose (CMC)
[2] = dose: 200.0 mg/kg/injection, schedule: Q01DX001 (ip), vehicle: carboxymethylcellulose (CMC)
[3] = dose: 400.0 mg/kg/injection, schedule: Q01DX001 (ip), vehicle: carboxymethylcellulose (CMC)
[4] = dose: 100.0 mg/kg/injection, schedule: Q04DX003 (ip), vehicle: saline with Tween-80
[5] = dose: 200.0 mg/kg/injection, schedule: Q04DX003 (ip), vehicle: saline with Tween-80
[6] = dose: 100.0 mg/kg/injection, schedule: Q01DX009 (ip), vehicle: saline with Tween-80
[7] = dose: 200.0 mg/kg/injection, schedule: Q01DX009 (ip), vehicle: saline with Tween-80
[8] = dose: 400.0 mg/kg/injection, schedule: Q01DX009 (ip), vehicle: saline with Tween-80
[9] = dose: 75.0 mg/kg/injection, schedule: Q01DX001 (ip), vehicle: saline
[10] = dose: 100.0 mg/kg/injection, schedule: Q01DX001 (ip), vehicle: saline
[11] = dose: 200.0 mg/kg/injection, schedule: Q01DX001 (ip), vehicle: saline
[12] = dose: 400.0 mg/kg/injection, schedule: Q01DX001 (ip), vehicle: saline
[13] = dose: 100.0 mg/kg/injection, schedule: Q04DX003 (ip), vehicle: Klucel (hydroxypropylcellulose) (HPC)
[14] = dose: 200.0 mg/kg/injection, schedule: Q04DX003 (ip), vehicle: Klucel (hydroxypropylcellulose) (HPC)
[15] = dose: 400.0 mg/kg/injection, schedule: Q04DX003 (ip), vehicle: Klucel (hydroxypropylcellulose) (HPC)
[16] = dose: 100.0 mg/kg/injection, schedule: Q04DX003 (ip), vehicle: DMSO
[17] = dose: 200.0 mg/kg/injection, schedule: Q04DX003 (ip), vehicle: DMSO
[18] = dose: 100.0 mg/kg/injection, schedule: Q01DX001 (ip), vehicle: Klucel (hydroxypropylcellulose) (HPC)
[19] = dose: 200.0 mg/kg/injection, schedule: Q01DX001 (ip), vehicle: Klucel (hydroxypropylcellulose) (HPC)
[20] = dose: 400.0 mg/kg/injection, schedule: Q01DX001 (ip), vehicle: Klucel (hydroxypropylcellulose) (HPC)
[21] = dose: 25.0 mg/kg/injection, schedule: Q01DX009 (ip), vehicle: saline with Tween-80
[22] = dose: 50.0 mg/kg/injection, schedule: Q01DX009 (ip), vehicle: saline with Tween-80

In the case of CCOP(=O)(Nc1c(Cl)cc2c(c1Cl)Cc1cc([N+](=O)[O-])ccc1-2)OCC, the T/C (dose: 50.0 mg/kg/injection, schedule: Q01DX001 (ip), vehicle: carboxymethylcellulose (CMC)) is reported as 103 % of control, the T/C [1] is reported as 100 % of control and the T/C [2] is reported as 100 % of control. The T/C [3] was 103 % of control.
With CC(C)N(CCNc1nc(C(Cl)(Cl)Cl)nc2cc(Cl)ccc12)C(C)C the T/C [4] was 93 % of control and the T/C [5] was 94 % of control.
In the case of Cc1cc(=O)c2c(C)ccc(C)c2[nH]1, the T/C (dose: 100.0 mg/kg/injection, schedule: Q01DX001 (ip), vehicle: other) is reported as 95 % of control, the T/C (dose: 200.0 mg/kg/injection, schedule: Q01DX001 (ip), vehicle: other) is reported as 91 % of control and the T/C (dose: 400.0 mg/kg/injection, schedule: Q01DX001 (ip), vehicle: other) is reported as 98 % of control.
In the case of CCC(=O)c1cc(OC)cc(OC)c1, the T/C (dose: 100.0 mg/kg/injection, schedule: Q01DX009 (ip), vehicle: saline) is reported as 105 % of control, the T/C (dose: 200.0 mg/kg/injection, schedule: Q01DX009 (ip), vehicle: saline) is reported as 105 % of control and the T/C (dose: 400.0 mg/kg/injection, schedule: Q01DX009 (ip), vehicle: saline) is reported as 112 % of control.
For NC(Cc1c[nH]c2ccccc12)C(=O)OCc1ccccc1 (configuration not stated), the T/C (dose: 6.25 mg/kg/injection, schedule: Q01DX009 (ip), vehicle: water) was 101 % of control, the T/C (dose: 12.5 mg/kg/injection, schedule: Q01DX009 (ip), vehicle: water) was 99 % of control and the T/C (dose: 25.0 mg/kg/injection, schedule: Q01DX009 (ip), vehicle: water) was 98 % of control and 106 % of control. For the same compound, the T/C (dose: 50.0 mg/kg/injection, schedule: Q01DX009 (ip), vehicle: water) was 107 % of control, the T/C [6] was 104 % of control and the T/C (dose: 100.0 mg/kg/injection, schedule: Q01DX009 (ip), vehicle: water) was 97 % of control and 86 % of control. The T/C [7] was 104 % of control and the T/C [8] was 93 % of control.
In the case of CC1CCC(C(C)C)C(NCCO)C1 (configuration not stated), the T/C (dose: 18.8 mg/kg/injection, schedule: Q04DX003 (ip), vehicle: saline) is reported as 102 % of control, the T/C (dose: 37.5 mg/kg/injection, schedule: Q04DX003 (ip), vehicle: saline) is reported as 100 % of control and the T/C [9] is reported as 103 % of control. The T/C (dose: 75.0 mg/kg/injection, schedule: Q04DX003 (ip), vehicle: saline) was 100 % of control.
In the case of C[N+](C)(C)N1C(=O)C2C3c4ccccc4C(C2C1=O)[n+]1ccccc13 (configuration not stated), the T/C (dose: 9.38 mg/kg/injection, schedule: Q01DX001 (ip), vehicle: other) is reported as 86 % of control and the T/C (dose: 18.75 mg/kg/injection, schedule: Q01DX001 (ip), vehicle: other) is reported as 105 % of control.
For CN(C)c1ccc(C=Nc2cc(Cl)ccc2O)cc1, the T/C [10] was 107 % of control, the T/C [11] was 100 % of control and the T/C [12] was 100 % of control.
In the case of C/C(CCC(=O)O)=N\NC(=O)Cc1cccc2ccccc12, the T/C [13] is reported as 94 % of control, the T/C [14] is reported as 102 % of control and the T/C [15] is reported as 102 % of control.
With CN(C)C(=S)Oc1cc(Cl)c(Cl)cc1Cl the T/C [13] was 96 % of control, the T/C [14] was 95 % of control and the T/C [15] was 90 % of control.
CCCCCCCCCCCCCCCCCCNC(=O)Nc1ccccc1[N+](=O)[O-] was tested, and the T/C (dose: 50.0 mg/kg/injection, schedule: Q01DX009 (ip), vehicle: DMSO) was 98 % of control, the T/C (dose: 100.0 mg/kg/injection, schedule: Q01DX009 (ip), vehicle: DMSO) was 88 % of control and the T/C [16] was 94 % of control. For the same compound, the T/C [17] was 89 % of control.
Nc1nc2nnc(-c3ccccc3)c(-c3ccccc3)n2n1 was tested, and the T/C [18] was 93 % of control, the T/C [13] was 96 % of control and the T/C [19] was 93 % of control. For the same compound, the T/C [14] was 101 % of control, the T/C [20] was 92 % of control and the T/C [15] was 91 % of control.
With CC/C=C(/C)C(C#N)(C(=O)O)C(C)C (configuration not stated) the T/C [9] was 98 % of control, the T/C (dose: 150.0 mg/kg/injection, schedule: Q01DX001 (ip), vehicle: saline) was 104 % of control and the T/C (dose: 300.0 mg/kg/injection, schedule: Q01DX001 (ip), vehicle: saline) was 94 % of control.
With CCOC(=O)C(CC)(CCC(C)C)C(=O)OCC the T/C [21] was 97 % of control, the T/C [22] was 92 % of control and the T/C [6] was 95 % of control. The T/C (dose: 100.0 mg/kg/injection, schedule: Q04DX003 (ip), vehicle: saline) was 95 % of control, the T/C (dose: 200.0 mg/kg/injection, schedule: Q04DX003 (ip), vehicle: saline) was 95 % of control and the T/C (dose: 400.0 mg/kg/injection, schedule: Q04DX003 (ip), vehicle: saline) was 95 % of control.
For Clc1ncnc2c1ncn2C1CCCCO1 (configuration not stated), the T/C (dose: 31.0 mg/kg/injection, schedule: Q01DX Z (ip), vehicle: other) was 101 % of control, the T/C (dose: 62.0 mg/kg/injection, schedule: Q01DX Z (ip), vehicle: other) was 103 % of control and the T/C [10] was 91 % of control. For the same compound, the T/C (dose: 100.0 mg/kg/injection, schedule: Q01DX009 (ip), vehicle: saline sonified) was 110 % of control, the T/C (dose: 175.0 mg/kg/injection, schedule: Q01DX015 (ip), vehicle: saline) was 113 % of control and the T/C [11] was 98 % of control. The T/C (dose: 200.0 mg/kg/injection, schedule: Q01DX009 (ip), vehicle: saline sonified) was 118 % of control, the T/C (dose: 265.0 mg/kg/injection, schedule: Q01DX015 (ip), vehicle: saline) was 123 % of control and the T/C [12] was 102 % of control. The T/C (dose: 400.0 mg/kg/injection, schedule: Q01DX009 (ip), vehicle: saline sonified) was 150 % of control and the T/C (dose: 400.0 mg/kg/injection, schedule: Q01DX015 (ip), vehicle: saline) was 123 % of control.
O=Cc1cc(=O)[nH]c(NC(=O)C(Cl)Cl)n1 was tested, and the T/C [10] was 101 % of control, the T/C [11] was 104 % of control and the T/C [12] was 89 % of control.
For CC1CCc2cccc(NC(=O)NCCCl)c21 (configuration not stated), the T/C [18] was 99 % of control, the T/C [13] was 92 % of control and the T/C [19] was 91 % of control. For the same compound, the T/C [14] was 92 % of control, the T/C [20] was 96 % of control and the T/C [15] was 92 % of control.
For CC(=O)Oc1ccccc1OC(=S)N(C)C, the T/C [4] was 106 % of control, the T/C [5] was 111 % of control and the T/C (dose: 400.0 mg/kg/injection, schedule: Q04DX003 (ip), vehicle: saline with Tween-80) was 105 % of control.
O=c1c(Br)cocc1Br was tested, and the T/C [6] was 92 % of control, the T/C [7] was 97 % of control and the T/C [8] was 102 % of control.
CCOc1ccccc1/C=N/N=C(N)N was tested, and the T/C (dose: 63.0 mg/kg/injection, schedule: Q01DX Z (ip), vehicle: carboxymethylcellulose (CMC)) was 95 % of control and the T/C (dose: 125.0 mg/kg/injection, schedule: Q01DX Z (ip), vehicle: carboxymethylcellulose (CMC)) was 95 % of control.
O=C(Nc1ccc(S(=O)(=O)F)cc1)c1ccc(C(=O)Nc2ccc(S(=O)(=O)F)cc2)cc1 was tested, and the T/C [1] was 102 % of control, the T/C [2] was 101 % of control and the T/C [3] was 96 % of control.
For N#Cc1ccccc1NC(=S)Nc1ccc([N+](=O)[O-])cc1, the T/C (dose: 12.5 mg/kg/injection, schedule: Q01DX009 (ip), vehicle: saline with Tween-80) was 95 % of control, the T/C [21] was 100 % of control and the T/C [22] was 95 % of control and 88 % of control.
For Oc1ccc2ccccc2c1/C=N/N=C/c1c(O)ccc2ccccc12, the T/C [13] was 96 % of control, the T/C [14] was 91 % of control and the T/C (dose: 300.0 mg/kg/injection, schedule: Q01DX009 (ip), vehicle: Klucel (hydroxypropylcellulose) (HPC)) was 98 % of control. The T/C [15] was 88 % of control.
With CC1(c2cccc3ccccc23)OCC2(CCCCC2)CO1 the T/C (dose: 81.3 mg/kg/injection, schedule: Q01DX009 (ip), vehicle: DMSO) was 109 % of control, the T/C [16] was 92 % of control and the T/C [17] was 90 % of control. The T/C (dose: 400.0 mg/kg/injection, schedule: Q04DX003 (ip), vehicle: DMSO) was 95 % of control.
CC1(C)C(C)(C)C1(F)Cl was tested, and the T/C [1] was 101 % of control, the T/C [2] was 106 % of control and the T/C [3] was 118 % of control.
In the case of S=C(Nc1cccc2ccccc12)N1CCOCC1, the T/C (dose: 100.0 mg/kg/injection, schedule: Q01DX009 (ip), vehicle: Klucel (hydroxypropylcellulose) (HPC)) is reported as 94 % of control, the T/C (dose: 200.0 mg/kg/injection, schedule: Q01DX009 (ip), vehicle: Klucel (hydroxypropylcellulose) (HPC)) is reported as 120 % of control and the T/C (dose: 400.0 mg/kg/injection, schedule: Q01DX009 (ip), vehicle: Klucel (hydroxypropylcellulose) (HPC)) is reported as 96 % of control.
